Measurements from publication PMC6443244 (Cell chemical biology, 2016).

Target: Fatty acid synthase (FASN) (Homo sapiens, UniProt P49327)
Assay: […]malonyl-CoA incorporation into fatty acids by purified FASN
Type: biochemical

Fatty acid synthase (FASN), sequence (P49327 whole entry): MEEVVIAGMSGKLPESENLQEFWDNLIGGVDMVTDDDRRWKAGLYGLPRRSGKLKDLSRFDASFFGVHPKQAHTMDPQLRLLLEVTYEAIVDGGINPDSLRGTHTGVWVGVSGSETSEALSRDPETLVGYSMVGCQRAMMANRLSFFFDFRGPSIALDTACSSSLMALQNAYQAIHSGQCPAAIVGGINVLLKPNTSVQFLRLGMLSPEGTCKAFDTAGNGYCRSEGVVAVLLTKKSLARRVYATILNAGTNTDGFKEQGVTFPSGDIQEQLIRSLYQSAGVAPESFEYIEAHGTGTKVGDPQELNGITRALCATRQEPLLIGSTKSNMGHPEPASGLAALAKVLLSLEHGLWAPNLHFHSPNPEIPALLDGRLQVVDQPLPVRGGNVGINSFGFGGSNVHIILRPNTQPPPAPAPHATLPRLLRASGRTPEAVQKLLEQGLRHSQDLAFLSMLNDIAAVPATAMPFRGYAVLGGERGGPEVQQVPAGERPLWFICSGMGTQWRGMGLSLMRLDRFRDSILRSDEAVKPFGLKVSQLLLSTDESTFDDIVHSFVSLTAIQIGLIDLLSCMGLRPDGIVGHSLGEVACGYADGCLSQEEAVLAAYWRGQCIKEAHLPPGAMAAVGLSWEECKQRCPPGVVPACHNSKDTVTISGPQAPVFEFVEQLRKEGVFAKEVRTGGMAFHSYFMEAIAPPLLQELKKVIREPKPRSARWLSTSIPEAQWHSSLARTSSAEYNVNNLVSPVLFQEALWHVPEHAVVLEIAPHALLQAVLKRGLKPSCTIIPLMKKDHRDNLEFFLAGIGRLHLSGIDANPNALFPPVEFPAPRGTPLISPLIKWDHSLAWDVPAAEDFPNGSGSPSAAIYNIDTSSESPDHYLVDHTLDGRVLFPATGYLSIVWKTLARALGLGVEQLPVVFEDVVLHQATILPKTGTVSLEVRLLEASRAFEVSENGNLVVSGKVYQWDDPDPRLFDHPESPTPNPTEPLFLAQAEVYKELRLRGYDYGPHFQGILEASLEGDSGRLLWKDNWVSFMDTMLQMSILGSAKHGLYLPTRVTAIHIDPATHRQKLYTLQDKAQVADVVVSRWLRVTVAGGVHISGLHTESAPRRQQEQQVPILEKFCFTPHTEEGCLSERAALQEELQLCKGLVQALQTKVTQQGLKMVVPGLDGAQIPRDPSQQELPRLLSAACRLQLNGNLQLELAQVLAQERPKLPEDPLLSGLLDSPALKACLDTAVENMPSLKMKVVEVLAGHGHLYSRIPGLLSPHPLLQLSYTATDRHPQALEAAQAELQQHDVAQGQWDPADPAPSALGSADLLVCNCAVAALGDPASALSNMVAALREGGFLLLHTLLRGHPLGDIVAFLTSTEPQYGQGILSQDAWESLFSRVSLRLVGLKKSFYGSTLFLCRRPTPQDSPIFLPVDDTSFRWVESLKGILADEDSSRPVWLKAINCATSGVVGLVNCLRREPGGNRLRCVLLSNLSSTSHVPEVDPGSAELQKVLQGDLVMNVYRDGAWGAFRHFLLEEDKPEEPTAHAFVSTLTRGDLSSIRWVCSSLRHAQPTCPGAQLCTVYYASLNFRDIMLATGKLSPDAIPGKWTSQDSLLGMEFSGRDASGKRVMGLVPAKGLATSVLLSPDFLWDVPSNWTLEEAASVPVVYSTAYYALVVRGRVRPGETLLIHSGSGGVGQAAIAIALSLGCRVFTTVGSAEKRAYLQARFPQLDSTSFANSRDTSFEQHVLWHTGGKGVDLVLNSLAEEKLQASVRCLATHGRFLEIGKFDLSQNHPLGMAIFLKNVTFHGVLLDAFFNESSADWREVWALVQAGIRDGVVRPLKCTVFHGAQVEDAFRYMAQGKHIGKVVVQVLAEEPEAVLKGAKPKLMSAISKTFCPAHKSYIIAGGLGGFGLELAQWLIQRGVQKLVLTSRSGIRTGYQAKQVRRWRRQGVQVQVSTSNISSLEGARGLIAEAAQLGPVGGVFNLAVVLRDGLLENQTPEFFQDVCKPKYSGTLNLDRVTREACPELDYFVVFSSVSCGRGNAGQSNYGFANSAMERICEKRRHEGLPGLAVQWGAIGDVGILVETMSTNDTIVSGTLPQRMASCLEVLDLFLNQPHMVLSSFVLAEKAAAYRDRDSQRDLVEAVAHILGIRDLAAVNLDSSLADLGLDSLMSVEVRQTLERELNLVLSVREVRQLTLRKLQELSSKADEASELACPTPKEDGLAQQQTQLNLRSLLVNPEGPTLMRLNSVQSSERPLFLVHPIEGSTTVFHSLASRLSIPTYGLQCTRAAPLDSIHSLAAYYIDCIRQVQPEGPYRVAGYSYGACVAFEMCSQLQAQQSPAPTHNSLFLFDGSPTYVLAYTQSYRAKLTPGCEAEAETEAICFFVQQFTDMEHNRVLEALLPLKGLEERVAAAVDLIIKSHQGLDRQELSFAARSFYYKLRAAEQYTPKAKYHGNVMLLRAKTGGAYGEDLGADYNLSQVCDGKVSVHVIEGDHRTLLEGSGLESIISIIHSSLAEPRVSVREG

Cc1sc2ncnc(NC3CCN(Cc4ccccc4)C3)c2c1C (stereo not shown) [Fasnall]
IC50: 3.71 µM
